{
  "source": "patent US20190345443A1",
  "about": "“METHOD FOR THE CULTURING AND DIFFERENTIATION OF CELLS” (FRAUNHOFER-GESELLSCHAFT ZUR FORDERUNG DER ANGEWANDTEN …, priority 2018, published 2019)",
  "system": "MDA-MB-231 breast cancer cells",
  "assay": "Overhead culture of MDA-MB-231 breast cancer cells with paclitaxel, relative cell count",
  "assay_type": "cell-based",
  "conditions": "500 nM paclitaxel, 48 h overhead culture",
  "procedure": "In the present experiment, MDA-MB-231 breast cancer cells were initially seeded on cell culture substrates according to the present invention, in particular nanoporous glass membranes with average pore diameters of 17 nm, 26 nm, 46 nm, 81 nm, and 124 nm, and on a smooth non-porous glass surface and cultured for 24 h in order to obtain homogeneous cell colonization on all substrates. Subsequently, the samples were inverted and divided into two groups: one control group and one test group, wherein the culturing took place in overhead culture for 48 h. In this context, the control group was cultured in normal culture medium and 500 nM paclitaxel was added to the culture medium of the test group. During culturing for 48 h in overhead culture, a reduction of the relative cell count on the substrates according to the invention by approximately 35-55% in the test group as compared to the control group was observed (FIG. 7).",
  "data": [
    {"compound": "CC(=O)O[C@H]1C(=O)[C@@]2(C)[C@H]([C@H](OC(=O)c3ccccc3)[C@]3(O)C[C@H](OC(=O)[C@H](O)[C@@H](NC(=O)c4ccccc4)c4ccccc4)C(C)=C1C3(C)C)[C@]1(OC(C)=O)CO[C@@H]1C[C@@H]2O", "note": "[paclitaxel]", "values": [
      {"measurement": "reduction of the relative cell count in the test group as compared to the control group", "setting": "on nanoporous glass membranes (17, 26, 46, 81, 124 nm)", "value": "35-55%"},
      {"measurement": "reduction of the relative cell count in the test group as compared to the control group", "setting": "on smooth non-porous glass surface", "value": "approximately 5%"}
    ]}
  ]
}
